One sequence from patent publication US12194081B2, “ARGINASE1 polypeptides” (IO BIOTECH APS, priority 2018, dated 2025) can be followed below.

One assay relates to B16F10 melanoma. Nature of the assay: Tumour vaccination, B16F10 melanoma tumour model. The conditions noted are these: 100 μg ArgLong2 with Montanide, days 0, 7, 14; FIG. 8. It is filed as in vivo, mouse. On the procedure: (§1) Animals were vaccinated subcutaneously with 100 μg peptide in DMSO/H2O in a 1:1 emulsion with incomplete Montanide ISA 51 VG. Montanide ISA 51 VG+DMSO/H2O served as a control vaccine. For subsequent analysis of the immune response to the ArgLong2 peptide, mice were sacrificed on day 7 and spleen and draining lymph nodes (dLNs) were harvested for ELISPOT setup.
(§2) Each animal was inoculated subcutaneously into the right flank with 0.5×10^6 syngeneic tumour cells in 100 μl media. Both the syngeneic B16 F10 melanoma cells line and the syngeneic MC38 colon adenocarcinoma cell line were used. Vaccinations were initiated on day 0 and repeated once a week (day 7 and day 14). Peptide and control vaccinations were performed as described above.
(§3) Tumour growth was monitored and tumours were measured approximately every second day. Tumour volume was calculated at V [mm^3]=L×W^2/2 (where L is the longest diameter and W perpendicular to L). Maximum tumor size before mice were euthanized was 864 mm^3 (L=12 mm, W=12 mm).

In assay [1] the test system is MC38 colon adenocarcinoma. Nature of the assay: Tumour vaccination, MC38 colon adenocarcinoma tumour model. It is filed as in vivo, mouse. The conditions noted are these: 100 μg ArgLong2 with Montanide, days 0, 7, 14; p=0.030 Mixed effects analysis; FIG. 7. On the procedure:
as §1, §2, §3

Assay [2] deals with CD4+ and CD8+ T cells in PBMCs. Description: Intracellular staining for IFNγ and TNFα in CD4+ and CD8+ T cells. It is filed as cell-based, human. As to the method:
Intracellular staining of cell cultures was performed after PBMCs were stimulated with arginase-derived peptides for 5 hours in the presence of BD GolgiPlug™ (added after the first hour of peptide stimulation). Stimulated cells were stained with fluorescently labeled antibodies for surface markers (CD3, CD4, CD8) and thereafter permeabilized by using Fixation/Permeabilization and Permeabilization Buffer (eBioscience, cat. 00-5123-43), according to manufacturer's instructions. Permeabilized cells were then stained with fluorochrome-labeled antibodies for IFNγ and TNFα. Flow cytometry analysis was performed on a FACSCanto™ II (BD Biosciences). Antibodies used: IFNγ-APC (cat. 341117), TNFα-455 BV421 (cat. 562783), CD4-FITC (cat. 347413), CD8-PerCP (cat. 345774), CD3-APC-H7 (cat. 560275) (all from BD Biosciences), dead cells stain-FVS510 (564406, BD Biosciences) according to manufacturer's instructions.

Another assay deals with C57BL/6 mice. Nature of the assay: Peptide vaccination of C57BL/6 mice, IFNγ ELISPOT of spleen and draining lymph node cells. Format: in vivo, mouse. The conditions noted are these: 100 μg peptide s.c. with Montanide ISA 51 VG; one vaccination; day 7; spleen and dLNs; FIG. 6. On the procedure:
as §1
Murine immune cells were subjected to ELISPOT analysis. Single cell suspension was prepared from spleen or dLNs by passage through a cell strainer. After lysis of red blood cells, 0.6-0.8×10^6 cells/well were seeded into ELISPOT plates coated with anti-IFNγ antibody. Peptide of interest was added to designated wells and cells were incubated overnight with peptide. The next day, cells were removed, plates washed and incubated with biotinylated detection antibody. Finally, after addition of Streptavidin-ALP and substrate visible spots appear. Each spot corresponds to an individual IFNγ producing cell. Plates were analysed in an Immunospot analyser and plotted.

Assay [3] has as its system PBMCs from healthy donors and cancer patients. Description: ex vivo IFNγ ELISPOT of PBMCs without prior peptide stimulation. Format: cell-based, human. The conditions noted are these: 4 healthy donors and 2 cancer patients; FIG. 4A. As to the method:
For in vitro ELISPOT, PBMCs from cancer patients and healthy donors were pulsed with 20 μM of Arginase 1-derived peptides and 120 U/ml IL-2 in 24-well plates for 7 days before being used in an ELISPOT assay. The cells were placed in 96-well nitrocellulose ELISPOT plates (MultiScreen MAIP N45; Millipore) pre-coated with IFNγ capture antibody (Mabtech). Arginase peptides added to a final concentration of 5 μM and plates incubated at 37° C. for 14-16 hours. After the incubation the cells were washed off and secondary biotinylated Ab (Mabtech, cat. 3420-6-1000) was added for 2 hours at room temperature. Unbound secondary antibody was washed off and streptavidin conjugated alkaline phosphatase (AP) (Mabtech, cat. 3310-10) was added for 1 hour at room temperature. Unbound conjugated enzyme was washed off and the assay was developed by adding BCIP/NBT substrate (Mabtech, cat. 3650-10). Developed ELISPOT plates were analyzed on CTL ImmunoSpot S6 Ultimate-V analyzer using Immunospot software v5.1. Responses were reported as the difference between average numbers of spots in wells stimulated with Arginase 1 and wells without added peptide.
PBMCs from 4 healthy donors and 2 cancer patients (1 breast cancer and 1 malignant melanoma) that had shown strong responses in in vitro ELISPOT were directly tested for responses to ArgLong2 peptide in ex vivo IFNγ ELISPOT.

With “ISAKDIVYIGLRDVDPGEHYILKTLGIKYFSMTEVDRL (Peptide fragment of human Arginase 1 (ArgLong2)) [38-mer, positions 169-206 of full length human Arginase 1]”, in the assay with B16F10 melanoma, the “tumour growth vs control vaccination, B16” value is “significantly delay tumour growth”. Also, in assay [1], the “tumour growth vs control vaccination, MC38” value is given as “significantly delay tumour growth”. Further, the “ex vivo CD4+ responses, intracellular staining” value in assay [2] (PBMCs from two cancer patients (MM27, BC30) without prior peptide stimulation, FIG. 3B left) is “ex vivo CD4+ responses in PBMCs from both cancer patients”. Also, the “ex vivo CD8+ responses, intracellular staining” value in assay [2] (PBMCs from two cancer patients (MM27, BC30) without prior peptide stimulation, FIG. 3B right) was “ex vivo CD8+ responses in the breast cancer patient PBMCs”. Besides, the “CD4+ T cell responses, in vitro intracellular staining” value in assay [2] (two healthy donors and one breast cancer patient, one week after stimulation with ArgLong2 and low dose IL-2, FIG. 3A left) was “detected in one healthy donor and in the breast cancer patient PBMCs”. Besides, the “CD8+ T cell responses, in vitro intracellular staining” value in assay [2] (two healthy donors and one breast cancer patient, one week after stimulation with ArgLong2 and low dose IL-2, other healthy donor showed only CD8+ response, FIG. 3A right) was “detected in one healthy donor and in the breast cancer patient PBMCs”. Further, the “immunogenicity in mice (vaccine-specific T cell responses, IFNγ ELISPOT)” value with C57BL/6 mice is “strongly immunogenic”. The “spontaneous responses in ex vivo IFNγ ELISPOT” value in assay [3] is recorded as “significant spontaneous responses in all 6 donors”.
